Measured values published in PubChem BioAssay AID248 (DTP/NCI, 2004).
Where “and” joins values, the source holds several entries; their conditions need not be identical. Identical values can stand only once. Toxic doses and inconclusive results are not listed.

Tested on: L1210 leukemia ip in BDF1 mice, survival T/C
Assay: NCI In Vivo Anticancer Drug Screen. Data for tumor model L1210 Leukemia (intraperitoneal) in B6D2F1 (BDF1) mice
Conditions: endpoint: mean survival time, higher = longer survival
Procedure, shortened: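 Survival endpoint. Drug-treated group vs vehicle group, expressed as T divided by C. Tumor passaged by transplantation.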

[1] = dose: 100.0 mg/kg/injection, schedule: Q01DX001 (ip), vehicle: saline with Tween-80

## CCCOC1=C(N2CC2)C(=O)C(OCCC)=C(N2CC2)C1=O
dose: 0.23 mg/kg/injection, schedule: Q01DX009 (ip), vehicle: Klucel (hydroxypropylcellulose) (HPC)
  T/C: 103 % of control
dose: 0.46 mg/kg/injection, schedule: Q01DX009 (ip), vehicle: Klucel (hydroxypropylcellulose) (HPC)
  T/C: 107 % of control
dose: 0.62 mg/kg/injection, schedule: Q#A X Z (ip), vehicle: alkali diluted with saline
  T/C: 113 % of control
dose: 0.93 mg/kg/injection, schedule: Q01DX009 (ip), vehicle: Klucel (hydroxypropylcellulose) (HPC)
  T/C: 108 % of control
dose: 1.25 mg/kg/injection, schedule: Q01DX006 (iv), vehicle: alkali diluted with saline
  T/C: 113 % of control
dose: 1.25 mg/kg/injection, schedule: Q01DX Z (im), vehicle: alkali diluted with saline
  T/C: 113 % of control
dose: 1.25 mg/kg/injection, schedule: Q01DX Z (ip), vehicle: alkali diluted with saline
  T/C: 104 % of control
dose: 1.25 mg/kg/injection, schedule: Q01DX Z (sc), vehicle: alkali diluted with saline
  T/C: 113 % of control
dose: 1.25 mg/kg/injection, schedule: Q#A X Z (ip), vehicle: alkali diluted with saline
  T/C: 121 % of control
dose: 1.87 mg/kg/injection, schedule: Q01DX009 (ip), vehicle: Klucel (hydroxypropylcellulose) (HPC)
  T/C: 114 % of control
dose: 1.87 mg/kg/injection, schedule: Q04DX003 (ip), vehicle: Klucel (hydroxypropylcellulose) (HPC)
  T/C: 106 % of control
dose: 2.5 mg/kg/injection, schedule: Q01DX006 (iv), vehicle: alkali diluted with saline
  T/C: 109 % of control
dose: 2.5 mg/kg/injection, schedule: Q01DX Z (im), vehicle: alkali diluted with saline
  T/C: 122 % of control
dose: 2.5 mg/kg/injection, schedule: Q01DX Z (sc), vehicle: alkali diluted with saline
  T/C: 110 % of control
dose: 3.0 mg/kg/injection, schedule: Q03DX006 (ip), vehicle: alkali diluted with saline
  T/C: 107 % of control
dose: 3.75 mg/kg/injection, schedule: Q01DX009 (ip), vehicle: Klucel (hydroxypropylcellulose) (HPC)
  T/C: 122 % of control
dose: 3.75 mg/kg/injection, schedule: Q04DX003 (ip), vehicle: Klucel (hydroxypropylcellulose) (HPC)
  T/C: 118 % of control
dose: 5.0 mg/kg/injection, schedule: Q01DX006 (iv), vehicle: alkali diluted with saline
  T/C: 122 % of control
dose: 5.0 mg/kg/injection, schedule: Q01DX Z (oral), vehicle: alkali diluted with saline
  T/C: 113 % of control
dose: 5.0 mg/kg/injection, schedule: Q#A X Z (ip), vehicle: alkali diluted with saline
  T/C: 158 % of control
dose: 7.0 mg/kg/injection, schedule: Q03DX006 (ip), vehicle: alkali diluted with saline
  T/C: 115 % of control
dose: 10.0 mg/kg/injection, schedule: Q01DX001 (ip), vehicle: alkali diluted with saline
  T/C: 112 % of control
dose: 10.0 mg/kg/injection, schedule: Q01DX006 (iv), vehicle: alkali diluted with saline
  T/C: 115 % of control
dose: 10.0 mg/kg/injection, schedule: Q01DX Z (im), vehicle: alkali diluted with saline
  T/C: 163 % of control
dose: 10.0 mg/kg/injection, schedule: Q01DX Z (oral), vehicle: alkali diluted with saline
  T/C: 115 % of control
dose: 10.0 mg/kg/injection, schedule: Q07DX003 (ip), vehicle: alkali diluted with saline
  T/C: 96 % of control
dose: 15.0 mg/kg/injection, schedule: Q03DX006 (ip), vehicle: alkali diluted with saline
  T/C: 153 % of control
dose: 20.0 mg/kg/injection, schedule: Q01DX001 (ip), vehicle: alkali diluted with saline
  T/C: 104 % of control and 115 % of control
dose: 20.0 mg/kg/injection, schedule: Q01DX006 (iv), vehicle: alkali diluted with saline
  T/C: 103 % of control
dose: 20.0 mg/kg/injection, schedule: Q01DX Z (im), vehicle: alkali diluted with saline
  T/C: 94 % of control
dose: 20.0 mg/kg/injection, schedule: Q01DX Z (sc), vehicle: alkali diluted with saline
  T/C: 120 % of control
dose: 20.0 mg/kg/injection, schedule: Q07DX003 (ip), vehicle: alkali diluted with saline
  T/C: 106 % of control
dose: 20.0 mg/kg/injection, schedule: Q#A X Z (ip), vehicle: alkali diluted with saline
  T/C: 103 % of control
dose: 30.0 mg/kg/injection, schedule: Q03DX006 (ip), vehicle: alkali diluted with saline
  T/C: 117 % of control
dose: 30.0 mg/kg/injection, schedule: Q04DX003 (ip), vehicle: Klucel (hydroxypropylcellulose) (HPC)
  T/C: 102 % of control
dose: 40.0 mg/kg/injection, schedule: Q01DX001 (ip), vehicle: alkali diluted with saline
  T/C: 118 % of control
dose: 40.0 mg/kg/injection, schedule: Q01DX006 (iv), vehicle: alkali diluted with saline
  T/C: 123 % of control
dose: 40.0 mg/kg/injection, schedule: Q01DX Z (im), vehicle: alkali diluted with saline
  T/C: 121 % of control
dose: 40.0 mg/kg/injection, schedule: Q01DX Z (ip), vehicle: alkali diluted with saline
  T/C: 106 % of control
dose: 40.0 mg/kg/injection, schedule: Q01DX Z (sc), vehicle: alkali diluted with saline
  T/C: 113 % of control
dose: 40.0 mg/kg/injection, schedule: Q07DX003 (ip), vehicle: alkali diluted with saline
  T/C: 124 % of control
dose: 80.0 mg/kg/injection, schedule: Q01DX001 (ip), vehicle: alkali diluted with saline
  T/C: 124 % of control
dose: 80.0 mg/kg/injection, schedule: Q01DX Z (oral), vehicle: alkali diluted with saline
  T/C: 122 % of control
dose: 125.0 mg/kg/injection, schedule: Q01DX001 (ip), vehicle: alkali diluted with saline
  T/C: 103 % of control
dose: 160.0 mg/kg/injection, schedule: Q01DX001 (ip), vehicle: alkali diluted with saline
  T/C: 115 % of control and 121 % of control
dose: 160.0 mg/kg/injection, schedule: Q07DX003 (ip), vehicle: alkali diluted with saline
  T/C: 111 % of control
dose: 320.0 mg/kg/injection, schedule: Q01DX001 (ip), vehicle: alkali diluted with saline
  T/C: 107 % of control and 113 % of control
dose: 320.0 mg/kg/injection, schedule: Q07DX003 (ip), vehicle: alkali diluted with saline
  T/C: 111 % of control
dose: 500.0 mg/kg/injection, schedule: Q01DX001 (ip), vehicle: alkali diluted with saline
  T/C: 102 % of control
dose: 640.0 mg/kg/injection, schedule: Q07DX003 (ip), vehicle: alkali diluted with saline
  T/C: 123 % of control
dose: 1000.0 mg/kg/injection, schedule: Q01DX001 (ip), vehicle: alkali diluted with saline
  T/C: 106 % of control

## CCOC(=O)C(CSCSC)NC(=O)/C=C/c1cccnc1 (centres undefined)
dose: 100.0 mg/kg/injection, schedule: Q01DX009 (ip), vehicle: saline with Tween-80
  T/C: 101 % of control
dose: 100.0 mg/kg/injection, schedule: Q04DX003 (ip), vehicle: saline with Tween-80
  T/C: 93 % of control
dose: 200.0 mg/kg/injection, schedule: Q01DX009 (ip), vehicle: saline with Tween-80
  T/C: 98 % of control
dose: 200.0 mg/kg/injection, schedule: Q04DX003 (ip), vehicle: saline with Tween-80
  T/C: 97 % of control
dose: 400.0 mg/kg/injection, schedule: Q01DX009 (ip), vehicle: saline with Tween-80
  T/C: 90 % of control
dose: 400.0 mg/kg/injection, schedule: Q04DX003 (ip), vehicle: saline with Tween-80
  T/C: 90 % of control

## CC1(C)CCC2=C(O1)C(=O)c1ccccc1C2=O
[1]
  T/C: 102 % of control
dose: 200.0 mg/kg/injection, schedule: Q01DX001 (ip), vehicle: saline with Tween-80
  T/C: 104 % of control
dose: 400.0 mg/kg/injection, schedule: Q01DX001 (ip), vehicle: saline with Tween-80
  T/C: 94 % of control

## Cc1nc2ccccc2s1
dose: 100.0 mg/kg/injection, schedule: Q04DX002 (ip), vehicle: saline
  T/C: 106 % of control
dose: 200.0 mg/kg/injection, schedule: Q04DX002 (ip), vehicle: saline
  T/C: 98 % of control
dose: 400.0 mg/kg/injection, schedule: Q04DX002 (ip), vehicle: saline
  T/C: 102 % of control

## Nc1ncnc2nc(-c3cccc(CNC(=O)c4ccccc4S(=O)(=O)F)c3)[nH]c12
dose: 25.0 mg/kg/injection, schedule: Q01DX001 (ip), vehicle: saline with Tween-80
  T/C: 93 % of control
dose: 50.0 mg/kg/injection, schedule: Q01DX001 (ip), vehicle: saline with Tween-80
  T/C: 88 % of control
[1]
  T/C: 87 % of control

## O=NN(CCCl)C(=O)Nc1ccc(I)cc1
dose: 8.0 mg/kg/injection, schedule: Q01DX009 (ip), vehicle: carboxymethylcellulose (CMC)
  T/C: 121 % of control
dose: 8.4 mg/kg/injection, schedule: Q01DX009 (ip), vehicle: carboxymethylcellulose (CMC)
  T/C: 112 % of control
dose: 12.0 mg/kg/injection, schedule: Q01DX009 (ip), vehicle: carboxymethylcellulose (CMC)
  T/C: 112 % of control
dose: 17.0 mg/kg/injection, schedule: Q01DX001 (ip), vehicle: carboxymethylcellulose (CMC)
  T/C: 117 % of control
dose: 17.7 mg/kg/injection, schedule: Q01DX001 (ip), vehicle: carboxymethylcellulose (CMC)
  T/C: 119 % of control
dose: 26.6 mg/kg/injection, schedule: Q01DX001 (ip), vehicle: carboxymethylcellulose (CMC)
  T/C: 122 % of control
dose: 29.0 mg/kg/injection, schedule: Q01DX009 (ip), vehicle: carboxymethylcellulose (CMC)
  T/C: 150 % of control and 154 % of control
dose: 44.0 mg/kg/injection, schedule: Q01DX009 (ip), vehicle: carboxymethylcellulose (CMC)
  T/C: 124 % of control
dose: 60.0 mg/kg/injection, schedule: Q01DX001 (ip), vehicle: carboxymethylcellulose (CMC)
  T/C: 119 % of control
dose: 66.0 mg/kg/injection, schedule: Q01DX009 (ip), vehicle: carboxymethylcellulose (CMC)
  T/C: 121 % of control and 90 % of control
dose: 89.0 mg/kg/injection, schedule: Q01DX001 (ip), vehicle: carboxymethylcellulose (CMC)
  T/C: 153 % of control
dose: 100.0 mg/kg/injection, schedule: Q01DX009 (ip), vehicle: carboxymethylcellulose (CMC)
  T/C: 98 % of control
dose: 200.0 mg/kg/injection, schedule: Q01DX001 (ip), vehicle: carboxymethylcellulose (CMC)
  T/C: 186 % of control
